This note sets out measurements from patent publication US11661431B2, “Thienopyrrole compounds” (Gilead Sciences, Inc., priority 2021, dated 2023).

Where only a bound is given, the exact number is not on record here.

One test deals with TLR8 (Homo sapiens (Human), UniProt Q9NR97). Briefly: TLR8 human peripheral blood mononuclear cell (PBMC) cell-based assay (Compound A as agonist; TNFα and IL12p40 readout). To be noted: human PBMCs, TLR8 agonist Compound A at 800 nM, 6 hours, antagonist potency; read-out: TLR-8 EC50.
The next test has as its target TLR7 (Homo sapiens (Human), UniProt Q9NYK1). The test is described as follows: TLR7 human peripheral blood mononuclear cell (PBMC) cell-based assay (GS-986 as agonist; IL-6 and IFNα readout). To be noted: human PBMCs, TLR7 agonist GS-986 at 400 nM, 6 hours, antagonist potency; read-out: TLR-7 EC50. Put shortly:
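Human PBMCs (100,000 cells/well) preincubated 1 h at 37 °C with antagonist in 10-point dose response, then stimulated with TLR7 agonist for a further 6 h at 37 °C, 5% CO2. Supernatant IL-6 and IFNα measured by electrochemiluminescence immunoassay.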

TLR7, sequence (Q9NYK1 27-1049): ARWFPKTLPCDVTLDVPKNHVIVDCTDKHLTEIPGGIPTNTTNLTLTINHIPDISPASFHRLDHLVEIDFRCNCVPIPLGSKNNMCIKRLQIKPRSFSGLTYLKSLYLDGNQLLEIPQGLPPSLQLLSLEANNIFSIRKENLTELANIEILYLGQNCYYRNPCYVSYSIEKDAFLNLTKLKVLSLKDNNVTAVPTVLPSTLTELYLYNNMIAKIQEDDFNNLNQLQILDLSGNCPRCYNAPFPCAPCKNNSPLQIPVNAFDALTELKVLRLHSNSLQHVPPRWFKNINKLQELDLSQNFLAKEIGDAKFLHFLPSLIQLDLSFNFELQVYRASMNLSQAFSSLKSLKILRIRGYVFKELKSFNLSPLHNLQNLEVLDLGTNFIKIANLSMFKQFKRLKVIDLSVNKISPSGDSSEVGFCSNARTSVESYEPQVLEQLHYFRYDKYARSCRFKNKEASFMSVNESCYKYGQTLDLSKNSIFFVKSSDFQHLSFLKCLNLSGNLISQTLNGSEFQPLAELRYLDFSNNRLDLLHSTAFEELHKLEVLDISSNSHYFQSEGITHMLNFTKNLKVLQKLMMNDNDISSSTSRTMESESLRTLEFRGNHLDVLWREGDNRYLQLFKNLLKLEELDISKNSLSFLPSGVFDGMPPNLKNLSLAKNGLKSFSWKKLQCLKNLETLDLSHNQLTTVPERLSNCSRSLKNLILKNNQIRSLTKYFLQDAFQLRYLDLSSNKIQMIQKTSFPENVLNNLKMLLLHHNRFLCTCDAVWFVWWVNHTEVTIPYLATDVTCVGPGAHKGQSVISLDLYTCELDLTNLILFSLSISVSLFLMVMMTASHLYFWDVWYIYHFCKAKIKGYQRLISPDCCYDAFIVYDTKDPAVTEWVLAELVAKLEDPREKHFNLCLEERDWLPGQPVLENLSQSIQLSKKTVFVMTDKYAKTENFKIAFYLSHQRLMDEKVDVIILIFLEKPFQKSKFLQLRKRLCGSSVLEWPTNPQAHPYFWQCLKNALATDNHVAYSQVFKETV
TLR8, sequence (Q9NR97 27-1041): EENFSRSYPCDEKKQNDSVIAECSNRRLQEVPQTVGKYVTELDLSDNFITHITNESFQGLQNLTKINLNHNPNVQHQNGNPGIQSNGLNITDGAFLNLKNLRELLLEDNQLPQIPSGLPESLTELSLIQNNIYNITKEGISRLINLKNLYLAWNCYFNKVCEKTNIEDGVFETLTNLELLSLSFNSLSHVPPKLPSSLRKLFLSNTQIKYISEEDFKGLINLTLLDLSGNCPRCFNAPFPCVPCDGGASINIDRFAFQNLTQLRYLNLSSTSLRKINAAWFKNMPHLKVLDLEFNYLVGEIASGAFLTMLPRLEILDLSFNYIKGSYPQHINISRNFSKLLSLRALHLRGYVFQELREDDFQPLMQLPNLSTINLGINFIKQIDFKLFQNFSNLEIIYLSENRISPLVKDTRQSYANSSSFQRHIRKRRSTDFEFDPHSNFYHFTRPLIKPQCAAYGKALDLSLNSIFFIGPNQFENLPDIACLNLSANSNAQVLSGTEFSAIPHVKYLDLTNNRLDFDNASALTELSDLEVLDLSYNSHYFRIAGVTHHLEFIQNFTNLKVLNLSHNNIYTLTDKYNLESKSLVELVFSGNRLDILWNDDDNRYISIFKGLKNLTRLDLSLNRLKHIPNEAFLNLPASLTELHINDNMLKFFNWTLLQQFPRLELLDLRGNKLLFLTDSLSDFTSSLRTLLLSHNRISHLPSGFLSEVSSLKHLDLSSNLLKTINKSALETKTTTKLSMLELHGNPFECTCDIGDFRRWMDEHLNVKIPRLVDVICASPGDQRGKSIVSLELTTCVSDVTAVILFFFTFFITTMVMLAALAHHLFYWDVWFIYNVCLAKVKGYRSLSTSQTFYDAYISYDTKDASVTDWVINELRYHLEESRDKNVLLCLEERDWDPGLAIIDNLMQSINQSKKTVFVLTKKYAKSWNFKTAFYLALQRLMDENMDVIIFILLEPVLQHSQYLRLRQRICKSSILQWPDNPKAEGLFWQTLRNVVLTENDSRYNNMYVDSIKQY

Usually EC50 stands for the concentration giving half of the maximal effect. With `Cc1c(C2CC3CCC(C2)N3CC(N)=O)sc2[nH]c(-c3cc(C)c4ncnn4c3)c(C(C)C)c12` (centres unmarked) [Example 62, 2-(3-(4-isopropyl-3-methyl-5-(8-methyl-[1,2,4]triazolo[1,5-a]pyridin-6-yl)-6H-thieno[2,3-b]pyrrol-2-yl)-8-azabicyclo[3.2.1]octan-8-yl)acetamide], the EC50 on TLR8 is 7170 pM; on TLR7, 190 pM.
The like results for `Cc1c(C2C3CCC2CN(CC(N)=O)C3)sc2[nH]c(-c3cc(C)c4ncnn4c3)c(C(C)C)c12` (centres unmarked) [Example 63] were, in that order, 27300 pM and 260 pM.
Taken in the same sequence, the figures for `Cc1c(C2CN(CC(N)=O)C2)sc2[nH]c(-c3cc(C)c4ncnn4c3)c(C(C)C)c12` [Example 64] were 9480 pM and 3120 pM.
Taken in the same sequence, the figures for `Cc1c(C2C3CC2CN(CC(N)=O)C3)sc2[nH]c(-c3cc(C)c4ncnn4c3)c(C(C)C)c12` (centres unmarked) [Example 65] were 33100 pM and 28100 pM.
For the compound `Cc1c(C2C[C@@H]3C[C@H]2CN3CC(N)=O)sc2[nH]c(-c3cc(C)c4ncnn4c3)c(C(C)C)c12` (some centres unmarked) [Example 66], the concentration for a half-maximal effect (EC50) on TLR8 was determined as 160 pM; at TLR7 it was 120 pM.
Taken in the same sequence, the figures for `Cc1c([C@H]2C[C@@H]3CN(CC(N)=O)C[C@@H]3C2)sc2[nH]c(-c3cc(C)c4ncnn4c3)c(C(C)C)c12` [Example 70, 2-((3aR,6aS)-5-(4-isopropyl-3-methyl-5-(8-methyl-[1,2,4]triazolo[1,5-a]pyridin-6-yl)-6H-thieno[2,3-b]pyrrol-2-yl)hexahydrocyclopenta[c]pyrrol-2(1H)-yl)acetamide] were 5950 pM and 50 pM.
The like results for `Cc1c([C@@H]2C[C@@H]3CN(CC(N)=O)C[C@@H]3C2)sc2[nH]c(-c3cc(C)c4ncnn4c3)c(C(C)C)c12` [Example 71, 2-((3aR,6aS)-5-(4-isopropyl-3-methyl-5-(8-methyl-[1,2,4]triazolo[1,5-a]pyridin-6-yl)-6H-thieno[2,3-b]pyrrol-2-yl)hexahydrocyclopenta[c]pyrrol-2(1H)-yl)acetamide] were, in that order, 7750 pM and 450 pM.
On to `Cc1c(-c2[nH]c3sc([C@@H]4C[C@@H]5C[C@H]4CN5)c(C)c3c2C(C)C)cn2ncnc2c1C` [Example 72, 2-((1S,4R,5R)-2-azabicyclo[2.2.1]heptan-5-yl)-5-(7,8-dimethyl-[1,2,4]triazolo[1,5-a]pyridin-6-yl)-4-isopropyl-3-methyl-6H-thieno[2,3-b]pyrrole], for which the EC50 at TLR8 came out at 110 pM; at TLR7 it was 100 pM.
Consider `Cc1c(-c2[nH]c3sc(C4CCNCC4)c(C)c3c2C(C)C)cn2ncnc2c1C` [Example 73], for which the 50% effective concentration (EC50) at TLR8 worked out at 4160 pM; at TLR7, 100 pM.
Taken in the same sequence, the figures for `Cc1c(-c2[nH]c3sc([C@H]4C[C@H]5C[C@@H]4CN5)c(C)c3c2C(C)C)cn2ncnc2c1C` [Example 74] were 940 pM and 50 pM.
Taken in the same sequence, the figures for `Cc1c(-c2[nH]c3sc(C4CC5(CNCCO5)C4)c(C)c3c2C(C)C)cn2ncnc2c1C` (centres unmarked) [Example 76, 2-(5-(7,8-dimethyl-[1,2,4]triazolo[1,5-a]pyridin-6-yl)-4-isopropyl-3-methyl-6H-thieno[2,3-b]pyrrol-2-yl)-5-oxa-8-azaspiro[3.5]nonane] were 240 pM and 50 pM.
Taken in the same sequence, the figures for `Cc1c(-c2[nH]c3sc(C45CCNCC4C5)c(C)c3c2C(C)C)cn2ncnc2c1C` (centres unmarked) [Example 77, 2-(3-azabicyclo[4.1.0]heptan-6-yl)-5-(7,8-dimethyl-[1,2,4]triazolo[1,5-a]pyridin-6-yl)-4-isopropyl-3-methyl-6H-thieno[2,3-b]pyrrole] were 2890 pM and 90 pM.
For the compound `Cc1c(-c2[nH]c3sc(C4COC5(CCNCC5)C4)c(C)c3c2C(C)C)cn2ncnc2c1C` (centres unmarked) [Example 78, 3-(5-(7,8-dimethyl-[1,2,4]triazolo[1,5-a]pyridin-6-yl)-4-isopropyl-3-methyl-6H-thieno[2,3-b]pyrrol-2-yl)-1-oxa-8-azaspiro[4.5]decane], the EC50 at TLR8 was found to be 5440 pM; at TLR7 it was 420 pM.
Taken in the same sequence, the figures for `Cc1c(-c2[nH]c3sc(C4COC5(CCN(CC(N)=O)CC5)C4)c(C)c3c2C(C)C)cn2ncnc2c1C` (centres unmarked) [Example 80] were 15200 pM and 2150 pM.
As for `Cc1c(-c2[nH]c3sc([C@@H]4C[C@@H]5C[C@H]4CN5C(C)C(N)=O)c(C)c3c2C(C)C)cn2ncnc2c1C` (some centres unmarked) [Example 81], the EC50 stood at 450 pM on TLR8 and 190 pM at TLR7.
The like results for `Cc1c(-c2[nH]c3sc([C@@H]4C[C@@H]5C[C@H]4CN5CCS(C)(=O)=O)c(C)c3c2C(C)C)cn2ncnc2c1C` [Example 83] were, in that order, 610 pM and 450 pM.
The like results for `Cc1c(-c2[nH]c3sc(C4CCN(C(=O)[C@@H]5COCCN5)CC4)c(C)c3c2C(C)C)cn2ncnc2c1C` [Example 92] were, in that order, 2670 pM and 1940 pM.
Taken in the same sequence, the figures for `Cc1c(-c2[nH]c3sc(C45CCN(CC(N)=O)CC4C5)c(C)c3c2C(C)C)cn2ncnc2c1C` (centres unmarked) [Example 93] were 18400 pM and 1360 pM.
For `Cc1c(-c2[nH]c3sc(C4CCN(C(=O)[C@H]5C[C@@]6(CNCCO6)C5)CC4)c(C)c3c2C(C)C)cn2ncnc2c1C` [Example 94, [4-[5-(7,8-dimethyl-[1,2,4]triazolo[1,5-a]pyridin-6-yl)-4-isopropyl-3-methyl-6H-thieno[2,3-b]pyrrol-2-yl]-1-piperidyl]-(5-oxa-8-azaspiro[3.5]nonan-2-yl)methanone], the EC50 came to 2300 pM at TLR8 and 50 pM on TLR7.
Turning to `Cc1c(-c2[nH]c3sc(C4CCN(C(=O)[C@@H]5CCCN5)CC4)c(C)c3c2C(C)C)cn2ncnc2c1C` [Example 99], the results for the EC50 on TLR8 and on TLR7 were 5960 pM and 430 pM, respectively.
In the case of `Cc1c(-c2[nH]c3sc(C4CCN(C(=O)[C@H]5CN6CCCC6CO5)CC4)c(C)c3c2C(C)C)cn2ncnc2c1C` (some centres unmarked) [Example 104], the EC50 came out at 2490 pM on TLR8 and 100 pM on TLR7.
Taken in the same sequence, the figures for `Cc1c(-c2[nH]c3sc(C4CCN(C(=O)C5CN6CC7CC6(CO5)C7)CC4)c(C)c3c2C(C)C)cn2ncnc2c1C` (centres unmarked) [Example 105] were 4170 pM and < 50 pM.
Taken in the same sequence, the figures for `Cc1c(-c2[nH]c3sc(C4CCN(C(=O)C5(N)COC5)CC4)c(C)c3c2C(C)C)cn2ncnc2c1C` [Example 106] were 49300 pM and 340 pM.
Turning to `Cc1c(-c2[nH]c3sc(C4CCN(C(=O)C56COC(CN5)C6)CC4)c(C)c3c2C(C)C)cn2ncnc2c1C` (centres unmarked) [Example 107], the EC50 is 6790 pM at TLR8 and < 50 pM on TLR7.
Taken in the same sequence, the figures for `Cc1c(-c2[nH]c3sc(C4CCN(C(=O)C56CCC(CN5)OC6)CC4)c(C)c3c2C(C)C)cn2ncnc2c1C` (centres unmarked) [Example 108] were 4770 pM and 200 pM.
Taken in the same sequence, the figures for `Cc1c(-c2[nH]c3sc(C4CCN(C(=O)[C@@H]5CNCCO5)CC4)c(C)c3c2C(C)C)cn2ncnc2c1C` [Example 109] were 3450 pM and < 50 pM.
The like results for `Cc1c(-c2[nH]c3sc(C4CCN(C(=O)[C@H]5CNCCO5)CC4)c(C)c3c2C(C)C)cn2ncnc2c1C` [Example 110] were, in that order, 6210 pM and 90 pM.
`Cc1c(-c2[nH]c3sc(-c4ccc(C5CCNCC5)cc4)c(C)c3c2C(C)C)cn2ncnc2c1C` [Example 111]: the values for the EC50 at TLR8 and at TLR7 were 6580 pM and 450 pM, respectively.
Take `Cc1c(-c2[nH]c3sc(C4C[C@@H]5CN[C@H]4C5)c(C)c3c2C(C)C)cn2ncnc2c1C` (some centres unmarked) [Example 112]: the EC50 stood at 500 pM at TLR8 and 70 pM at TLR7.
For the compound `Cc1c(-c2[nH]c3sc(-c4ccc(C5CCN(CC(N)=O)CC5)cc4)c(C)c3c2C(C)C)cn2ncnc2c1C` [Example 113], the half-maximal effective concentration (EC50) at TLR8 turned out to be 9800 pM; at TLR7, 540 pM.
The like results for `Cc1c(-c2[nH]c3sc(C4C[C@H]5C[C@@H]4N(CC(N)=O)C5)c(C)c3c2C(C)C)cn2ncnc2c1C` (some centres unmarked) [Example 114] were, in that order, 2710 pM and 440 pM.
The like results for `Cc1c(-c2[nH]c3sc(-c4ccc(C5CNCCO5)cc4)c(C)c3c2C(C)C)cn2ncnc2c1C` (centres unmarked) [Example 115] were, in that order, 9380 pM and 240 pM.
Taken in the same sequence, the figures for `Cc1c(C2CCN(C(=O)C3(N4CCOCC4)CC3)CC2)sc2[nH]c(-c3cc(C)c4ncnn4c3)c(C(C)C)c12` [Example 116] were 27400 pM and 390 pM.
In the case of `Cc1c(C2CCN(C(=O)[C@@H]3C[C@@H](F)CN3)CC2)sc2[nH]c(-c3cc(C)c4ncnn4c3)c(C(C)C)c12` [Example 117], the 50% effective concentration (EC50) on TLR8 worked out at 16600 pM; at TLR7, 520 pM.
The like results for `Cc1c(C2CCN(C(=O)[C@@H]3C[C@H](F)CN3)CC2)sc2[nH]c(-c3cc(C)c4ncnn4c3)c(C(C)C)c12` [Example 118] were, in that order, 15200 pM and 240 pM.
The like results for `Cc1nnc(CN2C[C@@H]3C[C@H]2C[C@H]3c2sc3[nH]c(-c4cn5ncnc5c(C)c4C)c(C(C)C)c3c2C)o1` [Example 119] were, in that order, 4550 pM and 340 pM.
Taken in the same sequence, the figures for `Cc1noc(C)c1CN1C[C@@H]2C[C@H]1C[C@H]2c1sc2[nH]c(-c3cn4ncnc4c(C)c3C)c(C(C)C)c2c1C` [Example 120] were 1100 pM and 90 pM.
For `Cc1nc2c(C)cc(-c3[nH]c4sc([C@@H]5C[C@@H]6C[C@H]5CN6CC(N)=O)c(C)c4c3C(C)C)cn2n1` [Example 121], the 50% effective concentration (EC50) at TLR8 is 130 pM; at TLR7, < 50 pM.
Taken in the same sequence, the figures for `Cc1c(C2CCC3(C2)CN(CC(N)=O)C3)sc2[nH]c(-c3cc(C)c4ncnn4c3)c(C(C)C)c12` (centres unmarked) [Example 122] were 1630 pM and 380 pM.
Taken in the same sequence, the figures for `Cc1c(C2CC3(CCNCC3)C2)sc2[nH]c(-c3cc(C)c4ncnn4c3)c(C(C)C)c12` [Example 123] were 2150 pM and 160 pM.
